Measurements taken from US9926282B2, “Phthalazinones and isoquinolinones as rock inhibitors” (BRISTOL-MYERS SQUIBB COMPANY, priority 2013, dated 2018).
Structures can show the parent of a compound that is named as a salt.

Key:
ROCK1 = ROCK1 (Homo sapiens (Human), UniProt Q13464); experiment: ROCK assay (LABCHIP peptide phosphorylation), ROCK1; assay type: biochemical; settings: 5 μM ATP, 1.5 μM peptide substrate; read-out: ROCK1 IC50
ROCK2 = ROCK2 (Homo sapiens (Human), UniProt O75116); experiment: ROCK assay (LABCHIP peptide phosphorylation), ROCK2; assay type: biochemical; settings: 5 μM ATP, 1.5 μM peptide substrate
ROCK2, sequence (O75116 whole entry, species assumed): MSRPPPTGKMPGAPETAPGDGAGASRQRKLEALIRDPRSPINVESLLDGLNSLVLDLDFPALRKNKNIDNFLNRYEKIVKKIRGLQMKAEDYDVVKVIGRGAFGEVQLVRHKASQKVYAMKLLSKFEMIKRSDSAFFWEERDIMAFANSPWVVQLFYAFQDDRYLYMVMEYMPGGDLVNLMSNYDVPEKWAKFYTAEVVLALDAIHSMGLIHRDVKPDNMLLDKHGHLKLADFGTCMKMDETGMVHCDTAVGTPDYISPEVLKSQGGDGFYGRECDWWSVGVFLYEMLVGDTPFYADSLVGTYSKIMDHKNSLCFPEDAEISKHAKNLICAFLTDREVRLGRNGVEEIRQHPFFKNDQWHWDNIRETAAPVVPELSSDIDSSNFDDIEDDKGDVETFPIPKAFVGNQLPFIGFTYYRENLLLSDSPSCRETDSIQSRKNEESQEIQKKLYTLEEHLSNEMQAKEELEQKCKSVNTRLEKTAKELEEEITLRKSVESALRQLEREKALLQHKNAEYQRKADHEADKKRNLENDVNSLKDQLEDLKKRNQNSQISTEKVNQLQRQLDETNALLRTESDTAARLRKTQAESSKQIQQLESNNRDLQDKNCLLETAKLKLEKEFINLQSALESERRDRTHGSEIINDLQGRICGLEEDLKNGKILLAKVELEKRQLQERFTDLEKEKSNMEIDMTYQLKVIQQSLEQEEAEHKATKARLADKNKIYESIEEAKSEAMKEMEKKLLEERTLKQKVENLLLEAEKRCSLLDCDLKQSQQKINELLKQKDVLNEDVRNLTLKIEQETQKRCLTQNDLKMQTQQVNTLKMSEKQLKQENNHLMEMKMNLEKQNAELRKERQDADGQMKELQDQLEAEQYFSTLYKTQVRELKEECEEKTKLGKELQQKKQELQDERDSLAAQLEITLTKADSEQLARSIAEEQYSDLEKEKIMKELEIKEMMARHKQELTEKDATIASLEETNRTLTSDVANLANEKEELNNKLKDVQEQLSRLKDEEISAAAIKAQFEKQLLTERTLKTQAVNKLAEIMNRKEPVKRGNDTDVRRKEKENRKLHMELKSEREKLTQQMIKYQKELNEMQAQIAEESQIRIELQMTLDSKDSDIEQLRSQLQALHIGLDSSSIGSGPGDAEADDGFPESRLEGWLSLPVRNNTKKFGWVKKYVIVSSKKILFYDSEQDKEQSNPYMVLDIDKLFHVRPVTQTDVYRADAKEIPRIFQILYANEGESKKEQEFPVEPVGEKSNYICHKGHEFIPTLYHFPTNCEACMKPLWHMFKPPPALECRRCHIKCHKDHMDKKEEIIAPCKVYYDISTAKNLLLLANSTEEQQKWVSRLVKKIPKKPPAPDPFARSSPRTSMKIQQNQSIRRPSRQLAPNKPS

ROCK1, sequence (Q13464 whole entry, species assumed): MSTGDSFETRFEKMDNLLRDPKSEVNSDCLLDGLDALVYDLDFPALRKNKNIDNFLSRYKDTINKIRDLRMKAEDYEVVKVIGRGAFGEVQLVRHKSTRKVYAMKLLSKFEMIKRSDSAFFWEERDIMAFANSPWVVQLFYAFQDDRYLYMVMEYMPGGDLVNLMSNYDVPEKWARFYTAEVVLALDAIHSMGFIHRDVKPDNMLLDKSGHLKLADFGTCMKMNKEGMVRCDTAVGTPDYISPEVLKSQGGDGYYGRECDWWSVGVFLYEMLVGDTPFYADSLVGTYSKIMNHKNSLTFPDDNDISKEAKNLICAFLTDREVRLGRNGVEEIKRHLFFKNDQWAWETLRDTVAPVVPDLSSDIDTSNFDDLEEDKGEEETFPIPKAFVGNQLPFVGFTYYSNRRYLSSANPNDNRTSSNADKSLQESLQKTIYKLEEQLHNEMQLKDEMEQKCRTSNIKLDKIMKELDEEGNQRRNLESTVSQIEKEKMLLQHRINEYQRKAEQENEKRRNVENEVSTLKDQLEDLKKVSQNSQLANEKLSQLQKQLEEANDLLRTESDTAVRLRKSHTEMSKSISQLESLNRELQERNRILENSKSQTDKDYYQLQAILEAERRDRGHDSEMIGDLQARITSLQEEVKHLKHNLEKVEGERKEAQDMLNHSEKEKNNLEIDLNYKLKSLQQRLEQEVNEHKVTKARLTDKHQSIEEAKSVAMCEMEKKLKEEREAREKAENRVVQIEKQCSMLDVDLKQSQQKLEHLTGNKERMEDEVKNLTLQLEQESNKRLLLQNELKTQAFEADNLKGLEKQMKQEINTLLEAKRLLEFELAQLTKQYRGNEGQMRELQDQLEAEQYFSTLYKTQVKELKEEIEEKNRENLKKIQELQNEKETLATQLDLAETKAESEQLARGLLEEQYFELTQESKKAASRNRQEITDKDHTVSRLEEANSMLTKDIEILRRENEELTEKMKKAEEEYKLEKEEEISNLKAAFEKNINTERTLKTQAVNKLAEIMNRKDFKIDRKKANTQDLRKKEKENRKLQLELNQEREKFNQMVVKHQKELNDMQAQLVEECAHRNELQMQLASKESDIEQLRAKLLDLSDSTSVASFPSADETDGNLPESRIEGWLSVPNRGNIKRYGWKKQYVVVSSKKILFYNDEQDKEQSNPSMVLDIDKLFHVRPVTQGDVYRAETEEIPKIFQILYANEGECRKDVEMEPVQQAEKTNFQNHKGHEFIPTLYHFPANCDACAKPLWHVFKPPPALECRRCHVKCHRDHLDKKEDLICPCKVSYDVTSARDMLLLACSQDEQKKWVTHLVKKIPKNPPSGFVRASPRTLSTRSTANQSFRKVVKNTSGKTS

Compound | IC50 (ROCK1) | IC50 (ROCK2)
CN(C)c1ccc(C(=O)Nc2ccc(-c3c[nH]c(=O)c4ccccc34)cc2)cc1 [Example 245, 4-(Dimethylamino)-N-(4-(1-oxo-1,2-dihydroisoquinolin-4-yl)phenyl)benzamide] | 0.1 to 100 nM | 0.1 to 100 nM
CC(C)(C)c1cc(NC(=O)Cc2ccc(-c3n[nH]c(=O)c4ccccc34)cc2)no1 [Example 278, N-(5-tert-butyl-1,2-oxazol-3-yl)-2-[4-(4-oxo-3,4-dihydrophthalazin-1-yl)phenyl]acetamide] | 101 to 1000 nM | 0.1 to 100 nM
Cc1cccc(N2CCC(C(=O)Nc3ccc(-c4n[nH]c(=O)c5ccccc45)cc3)C2=O)c1 (stereo not shown) [Example 209, 1-(3-methylphenyl)-2-oxo-N-[4-(4-oxo-3,4-dihydrophthalazin-1-yl)phenyl]pyrrolidine-3-carboxamide] | 101 to 1000 nM | 101 to 1000 nM
CC(C)OC(=O)N1CCC(Cn2nc(C(=O)Nc3ccc(-c4n[nH]c(=O)c5ccccc45)cc3)c3ccccc32)CC1 [Example 349, Propan-2-yl 4-[(3-{[4-(4-oxo-3,4-dihydrophthalazin-1-yl)phenyl]carbamoyl}-1H-indazol-1-yl)methyl]piperidine-1-carboxylate] | 0.1 to 100 nM | 0.1 to 100 nM
O=C(Nc1ccc(-c2n[nH]c(=O)c3ccccc23)cc1)c1c[nH]c2ncccc12 [Example 135, N-[4-(4-oxo-3,4-dihydrophthalazin-1-yl)phenyl]-1H-pyrrolo[2,3-b]pyridine-3-carboxamide] | 101 to 1000 nM | 0.1 to 100 nM
Cc1cc(NC(=O)c2nn(CC3CNC3)c3ccccc23)ccc1-c1n[nH]c(=O)c2ccccc12 [Example 326, 1-(Azetidin-3-ylmethyl)-N-(3-methyl-4-(4-oxo-3,4-dihydrophthalazin-1-yl)phenyl)-1H-indazole-3-carboxamide, TFA] | 0.1 to 100 nM | 101 to 1000 nM
O=c1[nH]nc(-c2ccc(Nc3nncc4ccccc34)cc2)c2ccccc12 [Example 85, 4-(4-(Phthalazin-1-ylamino)phenyl)phthalazin-1(2H)-one] | 0.1 to 100 nM | 0.1 to 100 nM
O=C(Nc1ccc(-c2n[nH]c(=O)c3ccccc23)cc1)c1nn(CC2CCN(C(=O)OCC(F)(F)F)CC2)c2ccccc12 [Example 351, 2,2,2-Trifluoroethyl 4-[(3-{[4-(4-oxo-3,4-dihydrophthalazin-1-yl)phenyl]carbamoyl}-1H-indazol-1-yl)methyl]piperidine-1-carboxylate] | 0.1 to 100 nM | 0.1 to 100 nM
CC(C)(O)COc1ccc2c(C(=O)Nc3ccc(-c4n[nH]c(=O)c5ccccc45)cc3)cnn2c1 [Example 172, 6-(2-hydroxy-2-methylpropoxy)-N-[4-(4-oxo-3,4-dihydrophthalazin-1-yl)phenyl]pyrazolo[1,5-a]pyridine-3-carboxamide] | 0.1 to 100 nM | 0.1 to 100 nM
O=C(Nc1ccc(-c2n[nH]c(=O)c3ccccc23)cc1)c1nn(CC2CNC2)c2ccccc12 [Example 338, 1-(Azetidin-3-ylmethyl)-N-(4-(4-oxo-3,4-dihydrophthalazin-1-yl)phenyl)-1H-indazole-3-carboxamide] | 0.1 to 100 nM | 101 to 1000 nM
Cc1cc(NC(=O)c2nn(CC3CN(C)C3)c3ccccc23)ccc1-c1n[nH]c(=O)c2ccccc12 [Example 330, N-(3-Methyl-4-(4-oxo-3,4-dihydrophthalazin-1-yl)phenyl)-1-((1-methylazetidin-3-yl)methyl)-1H-indazole-3-carboxamide] | 0.1 to 100 nM | 101 to 1000 nM
COc1ccccc1-n1nnc(C(=O)Nc2ccc(-c3n[nH]c(=O)c4ccccc34)cc2)c1C [Example 405, 1-(2-Methoxyphenyl)-5-methyl-N-(4-(4-oxo-3,4-dihydrophthalazin-1-yl)phenyl)-1H-1,2,3-triazole-4-carboxamide] | 0.1 to 100 nM | 0.1 to 100 nM
CC(C)=Cn1nc(C(=O)Nc2ccc(-c3n[nH]c(=O)c4ccccc34)cc2)c2cc(F)ccc21 [Example 178, 5-fluoro-1-(2-methylprop-1-en-1-yl)-N-[4-(4-oxo-3,4-dihydrophthalazin-1-yl)phenyl]-1H-indazole-3-carboxamide] | 101 to 1000 nM | 0.1 to 100 nM
COc1ccc2c(C(=O)Nc3ccc(-c4n[nH]c(=O)c5ccccc45)cc3)cnn2c1 [Example 141, 6-methoxy-N-[4-(4-oxo-3,4-dihydrophthalazin-1-yl)phenyl]pyrazolo[1,5-a]pyridine-3-carboxamide] | 0.1 to 100 nM | 0.1 to 100 nM
O=C(c1ccc2c(c1)CCN2C(=O)Cc1ccc(-c2n[nH]c(=O)c3ccccc23)cc1)N1CCOCC1 [Example 296, 4-(4-{2-[5-(morpholine-4-carbonyl)-2,3-dihydro-1H-indol-1-yl]-2-oxoethyl}phenyl)-1,2-dihydrophthalazin-1-one] | 101 to 1000 nM | 0.1 to 100 nM
O=C(Nc1ccc(-c2n[nH]c(=O)c3ccccc23)cc1)c1cnn(C2COC2)c1 [Example 389, 1-(Oxetan-3-yl)-N-(4-(4-oxo-3,4-dihydrophthalazin-1-yl)phenyl)-1H-pyrazole-4-carboxamide] | 101 to 1000 nM | 0.1 to 100 nM

Compound | IC50 (ROCK1) | IC50 (ROCK2)
O=C(Nc1ccc(-c2n[nH]c(=O)c3ccccc23)cc1)c1nc2ccccc2s1 [Example 115, N-[4-(4-oxo-3,4-dihydrophthalazin-1-yl)phenyl]-1,3-benzothiazole-2-carboxamide] | 0.1 to 100 nM | 0.1 to 100 nM
Cn1nc(C(=O)Nc2ccc(-c3n[nH]c(=O)c4ccccc34)cc2)cc1OC(F)F [Example 403, 5-(Difluoromethoxy)-1-methyl-N-(4-(4-oxo-3,4-dihydrophthalazin-1-yl)phenyl)-1H-pyrazole-3-carboxamide] | 0.1 to 100 nM | 0.1 to 100 nM
O=C(c1ccc2c(c1)CCN2C(=O)Cc1ccc(-c2n[nH]c(=O)c3ccccc23)cc1)N1CCC(O)CC1 [Example 294, 4-(4-{2-[5-(4-hydroxypiperidine-1-carbonyl)-2,3-dihydro-1H-indol-1-yl]-2-oxoethyl}phenyl)-1,2-dihydrophthalazin-1-one] | 101 to 1000 nM | 0.1 to 100 nM
CC(C)Oc1ccc2c(c1)N(C(=O)Cc1ccc(-c3n[nH]c(=O)c4ccccc34)cc1)CC2 [Example 258, 4-(4-(2-(6-Isopropoxyindolin-1-yl)-2-oxoethyl)phenyl)phthalazin-1(2H)-one] | 0.1 to 100 nM | 0.1 to 100 nM
COc1ccc2c(=O)[nH]cc(-c3ccc(NC(=O)N4CCc5ccccc54)cc3)c2c1 [Example 266, N-(4-(6-Methoxy-1-oxo-1,2-dihydroisoquinolin-4-yl)phenyl)indoline-1-carboxamide] | 0.1 to 100 nM | 0.1 to 100 nM
COc1cc2cc(C(=O)Nc3ccc(-c4n[nH]c(=O)c5ccccc45)cc3)oc2cc1F [Example 180, 6-fluoro-5-methoxy-N-[4-(4-oxo-3,4-dihydrophthalazin-1-yl)phenyl]-1-benzofuran-2-carboxamide] | 0.1 to 100 nM | 0.1 to 100 nM
O=C(Nc1ccc(-c2n[nH]c(=O)c3ccccc23)cc1)c1ccn(-c2ccccc2)n1 [Example 226, N-[4-(4-oxo-3,4-dihydrophthalazin-1-yl)phenyl]-1-phenyl-1H-pyrazole-3-carboxamide] | 0.1 to 100 nM | 0.1 to 100 nM
O=C(Cc1ccc(-c2n[nH]c(=O)c3ccccc23)cc1)N[C@@H]1CCc2ccccc21 [Example 81, (R)—N-(2,3-Dihydro-1H-inden-1-yl)-2-(4-(4-oxo-3,4-dihydrophthalazin-1-yl)phenyl)acetamide] | 1000 to 50000 nM | 101 to 1000 nM
Cc1nc2ccccn2c1C(=O)Nc1ccc(-c2n[nH]c(=O)c3ccccc23)cc1 [Example 95, 2-methyl-N-[4-(4-oxo-3,4-dihydrophthalazin-1-yl)phenyl]imidazo[1,2-a]pyridine-3-carboxamide] | 0.1 to 100 nM | 0.1 to 100 nM
O=C(Nc1ccc(-c2n[nH]c(=O)c3ccccc23)cc1)c1nn(Cc2cccnc2)c2ccccc12 [Example 161, N-[4-(4-oxo-3,4-dihydrophthalazin-1-yl)phenyl]-1-(pyridin-3-ylmethyl)-1H-indazole-3-carboxamide] | 0.1 to 100 nM | 0.1 to 100 nM
CN(C)CCOc1ccc2c(C(=O)Nc3ccc(-c4n[nH]c(=O)c5ccccc45)cc3)cnn2c1 [Example 177, 6-[2-(dimethylamino)ethoxy]-N-[4-(4-oxo-3,4-dihydrophthalazin-1-yl)phenyl]pyrazolo[1,5-a]pyridine-3-carboxamide] | 0.1 to 100 nM | 0.1 to 100 nM
O=C(Nc1ccc(-c2n[nH]c(=O)c3ccccc23)cc1)c1cnn(CC(O)(C(F)(F)F)C(F)(F)F)c1 [Example 380, N-(4-(4-Oxo-3,4-dihydrophthalazin-1-yl)phenyl)-1-(3,3,3-trifluoro-2-hydroxy-2-(trifluoromethyl)propyl)-1H-pyrazole-4-carboxamide] | 101 to 1000 nM | 0.1 to 100 nM
CC(C)c1c(C(=O)Nc2ccc(-c3n[nH]c(=O)c4ccccc34)cc2)cn2nc[nH]c(=O)c12 [Example 108, 4-oxo-N-[4-(4-oxo-3,4-dihydrophthalazin-1-yl)phenyl]-5-(propan-2-yl)-3H,4H-pyrrolo[2,1-f][1,2,4]triazine-6-carboxamide] | 101 to 1000 nM | 0.1 to 100 nM
Cn1nc(C(=O)Nc2ccc(-c3n[nH]c(=O)c4ccccc34)cc2)cc1C12CC3CC(CC(C3)C1)C2 [Example 201, 5-(adamantan-1-yl)-1-methyl-N-[4-(4-oxo-3,4-dihydrophthalazin-1-yl)phenyl]-1H-pyrazole-3-carboxamide] | 0.1 to 100 nM | 0.1 to 100 nM
COc1ccc2c(c1)N(C(=O)Nc1ccc(-c3c[nH]c(=O)c4cc(OC)c(OC)cc34)cc1)CC2 [Example 257, N-(4-(6,7-Dimethoxy-1-oxo-1,2-dihydroisoquinolin-4-yl)phenyl)-6-methoxyindoline-1-carboxamide] | 1000 to 50000 nM | 0.1 to 100 nM
O=C(Nc1ccc(-c2n[nH]c(=O)c3ccccc23)cc1)c1n[nH]c2ccc(Cl)cc12 [Example 114, 5-chloro-N-[4-(4-oxo-3,4-dihydrophthalazin-1-yl)phenyl]-1H-indazole-3-carboxamide] | 101 to 1000 nM | 0.1 to 100 nM
